Our source for the CC50 values is ChEMBL document CHEMBL1129227, “Synthesis and in vitro cytotoxic activity of novel hexahydro-2H-pyrido[1,2-b]isoquinolines against human brain tumor cell lines” (1997).

Holding throughout (type): functional
Common to all, as to settings: read-out: LC50 (the source's name)

One assay has as its system D283 Med. The experiment in a line: Compound was evaluated for the in vitro cytotoxicity against […] Med human brain medulloblastoma tumor cell line.
A further assay has as its system A 172. The assay can be described thus: Compound was evaluated for the in vitro cytotoxicity against A-172 human glioblastoma cell line.
Another assay deals with T98G. The experiment in a line: Compound was evaluated for the in vitro cytotoxicity against T98G human glioblastoma cell line.

As to `C=C(C)[C@H]1CCN2Cc3ccccc3C[C@H]2[C@@H]1NCc1ccccc1`, the CC50 is 53 µM in the assay with D283 Med, 58 µM with A 172 and 43 µM in the assay with T98G.

Turning to `C=C(C)[C@H]1CCN2Cc3ccccc3C[C@H]2[C@H]1O`, the CC50 in the assay with D283 Med came out at 143 µM; in the assay with A 172, 158 µM.

For the compound `C=C(C)[C@H]1CCN2Cc3ccccc3C[C@H]2[C@@H]1NCC(F)(F)F`, the values for the CC50 in the assay with D283 Med, in the assay with A 172 and in the assay with T98G were 40 µM, 157 µM and 172 µM, respectively.

`CC(C)[C@H]1CCN2Cc3ccccc3C[C@H]2[C@H]1/N=C/c1ccccc1`: the CC50 stood at 226 µM in the assay with A 172 and 222 µM with T98G.

Consider `C=C(C)[C@H]1CCN2Cc3ccccc3C[C@H]2[C@H]1NCc1ccc(Cl)cc1`, for which the figures for the CC50 with D283 Med, in the assay with A 172 and in the assay with T98G were 29 µM, 55 µM and 42 µM, respectively.

Regarding `CC(C)[C@H]1CCN2Cc3ccccc3C[C@H]2[C@H]1/N=C/c1ccc(Cl)cc1`, the CC50 was determined as 50 µM in the assay on D283 Med, 97 µM in the assay on A 172 and 45 µM in the assay on T98G.
